Data on one molecule can be found in patent US20180298024A1, “CORTISTATIN ANALOGS AND USES THEREOF” (President and Fellows of Harvard College, priority 2015, published 2018).

Molecules are shown by their SMILES. Bounds are passed on as bounds.

A short description of one series: in vivo. As to conditions: male, CD-1, mouse, ip, 0.16 mg/kg.
The subject of series [1] is Human AML cell line MV4;11. Briefly: MV4;11 disseminated leukemia model (bioluminescence). The format is in vivo, NSG mice. As to conditions: each compound at its own dose/schedule; data from 3 separate studies. The protocol: The in vivo anti-leukemic activity of Compounds A, B, C, D, and F was tested at the indicated doses and treatment schedules. The doses were chosen based on the compounds tolerability profile (i.e. CA was dosed at 0.16 mg/kg because higher doses caused weight loss or other tolerability issues outlined in Example 6). Human AML cell line MV4;11 expressing mCherry and luciferase were injected into NSG mice. Upon measurement of leukemia cell engraftment, treatment was initiated. Body weight and bioluminescence were measured. It has previously been shown (Shair, Nature 2015) that bioluminescence corresponds to leukemia burden. […] Moreover there was no appreciable advantage between IV or PO dosing observed.

Another series relates to OCI-AML2. The series is described as follows: Half-maximal growth inhibition (GI50), OCI-AML2. In kind it is cell-based. Conditions: Homo sapiens, 240 h, AML, M4, DNMT3A R635W, read-out: GI50 (nM), day 10. The protocol: (§1) Compounds A, B, C, D, and F were tested against various cell lines to probe their broad utility against cancer. Cortistatin A (CA) was also tested against the cell lines in a head to head fashion.

For a further series, the system named is SKNO-1. The series is described as follows: Half-maximal growth inhibition (GI50), SKNO-1. The format is cell-based. Conditions: Homo sapiens, 240 h, AML, M2, RUNX1-RUNX1T1, read-out: GI50 (nM), day 10. The protocol: as §1
The subject of the next series is MV4; 11. The series is described as follows: Half-maximal growth inhibition (GI50), MV4; 11. As to conditions: Homo sapiens, 240 h, AML, M5, MLL-AF4, read-out: GI50 (nM), day 10. In kind it is cell-based. The protocol:
as §1

A further series relates to MOLM-14. Briefly: Half-maximal growth inhibition (GI50), MOLM-14. As to conditions: Homo sapiens, 240 h, AML, M5, MLL-AF9, read-out: GI50 (nM), day 10. The format is cell-based. The protocol: as §1
For a further series, the system named is K562. Briefly: Half-maximal growth inhibition (GI50), K562. In kind it is cell-based. As to conditions: Homo sapiens, 240 h, CML, BCR-Abl, read-out: GI50 (nM), day 10. The protocol:
as §1

For another series, the system named is HEL. The series is described as follows: Half-maximal growth inhibition (GI50), HEL. In kind it is cell-based. Conditions: Homo sapiens, 240 h, AML, erythroleukemia, JAK2V617F, read-out: GI50 (nM), day 10. The protocol:
as §1

The subject of the next series is MKPL1. The series is described as follows: Half-maximal growth inhibition (GI50), MKPL1. In kind it is cell-based. As to conditions: Homo sapiens, 240 h, AML, M7, read-out: GI50 (nM), day 10. The protocol: as §1

One may read the AUC(0-inf) as the area under the concentration-time curve extrapolated to infinity. Read a low AUC(0-inf) as less exposure. The GI50 is the concentration that inhibits growth by half.

Molecule `CN(C)[C@H]1C[C@@]23CC[C@@]4(O2)C(=CC[C@]2(C)[C@@H](c5ccc6ccncc6c5)CC[C@H]24)C=C3[C@@H](O)[C@@H]1O` [Cortistatin A] gave an AUC(0-inf) in “in vivo” of 134 ng·h/mL. Also, the “Efficacy Rank Day 15” value in series [1] is on record as 4. Also, the concentration for 50% growth inhibition (GI50) in the series with OCI-AML2 is 1 nM; in the series with SKNO-1, below 1 nM; in the series on MV4; 11 it was below 1 nM; in the series with MOLM-14, below 1 nM; in the series with K562, above 1000 nM; in the series on HEL, above 1000 nM. Further, the GI50 with MKPL1 is below 1 nM.
